Legend:
[1] = test system: CA3-CA1 synapses in acute hippocampal slices; test: PTP and LTP of fEPSPs induced by 200-Hz tetanization in hippocampal slices; assay type: cell-based, mouse; settings: CPA or thapsigargin (4 μm); for fEPSP5 (PTP, 5 minutes after tetanization) as % of that in vehicle-treated Df(16)1/+ slices / fEPSP360 (LTP, 6 hours post-tetanus) as % of that in vehicle-treated Df(16)1/+ slices: slices from mature Df(16)1/+ mice
[2] = test system: CA3-CA1 synapses in acute hippocampal slices; test: Paired-pulse facilitation (PPF) of fEPSPs, field potential recordings in hippocampal slices; assay type: cell-based, mouse
[3] = WT mice, 200-Hz induction protocol

| Compound | effect on enhancement of PTP and LTP ([1]; Df(16)1/+ mice, 200-Hz tetanization) | WT fEPSP5 in the presence vs absence of inhibitor [1, 3] | WT fEPSP360 in the presence vs absence of inhibitor [1, 3] | fEPSP5 (PTP, 5 minutes after tetanization) as % of that in vehicle-treated Df(16)1/+ slices ([1]; 200-Hz tetanization) [%] | fEPSP360 (LTP, 6 hours post-tetanus) as % of that in vehicle-treated Df(16)1/+ slices ([1]; 200-Hz tetanization) [%] | PPF ([2]; Df(16)1/+ mice, 20-ms interval, CPA added to the bath solution) | PPF ([2]; Df(16)1/+ mice, 50-ms interval, CPA added to the bath solution) | PPF ([2]; WT mice, 20-ms interval, in the presence of CPA) | PPF ([2]; WT mice, 50-ms interval, in the presence of CPA) |
| --- | --- | --- | --- | --- | --- | --- | --- | --- | --- |
| C/C=C(/C)C(=O)O[C@H]1C(C)=C2[C@H]([C@@H]1OC(=O)CCCCCCC)[C@@](C)(OC(C)=O)C[C@H](OC(=O)CCC)[C@@]1(O)[C@H]2OC(=O)[C@@]1(C)O [thapsigargin] | rescued the enhancement of PTP and LTP | no significant difference | no significant difference | 69 | 57 | – | – | – | – |
| CC(=O)C1=C(O)[C@@H]2[C@H]3c4c[nH]c5cccc(c45)C[C@H]3C(C)(C)N2C1=O [CPA, cyclopiazonic acid] | – | – | – | 45 | 60 | 1.78±0.13 | 1.76±0.09 | 1.64±0.11 | 1.61±0.05 |

Reference: patent US8895511B2, “Use of sarcoplasmic CA2+-ATPase type 2 protein for diagnosing and treating learning or mental disorders” (priority 2009, dated 2014)
